Article PMC11783113, “Mechanistic insights into the selective targeting of P2X3 receptor by camlipixant antagonist” (The Journal of Biological Chemistry, 2024)
One block for each molecule: values may come before it.

How the values were obtained:
P2X3 receptor [1] = biological target: T1, P2X3 receptor (Canis lupus, UniProt A0A8I3S575); assay: MST Kd; cryo-EM structure of the P2X3–ATP complex; assay type: binding
T1 construct: gene P2RX3; deletion of five first residues in the N-terminal region and the 33 last residues in the C-terminal region; homotrimer
T1 sequence (A0A8I3S575 6-364): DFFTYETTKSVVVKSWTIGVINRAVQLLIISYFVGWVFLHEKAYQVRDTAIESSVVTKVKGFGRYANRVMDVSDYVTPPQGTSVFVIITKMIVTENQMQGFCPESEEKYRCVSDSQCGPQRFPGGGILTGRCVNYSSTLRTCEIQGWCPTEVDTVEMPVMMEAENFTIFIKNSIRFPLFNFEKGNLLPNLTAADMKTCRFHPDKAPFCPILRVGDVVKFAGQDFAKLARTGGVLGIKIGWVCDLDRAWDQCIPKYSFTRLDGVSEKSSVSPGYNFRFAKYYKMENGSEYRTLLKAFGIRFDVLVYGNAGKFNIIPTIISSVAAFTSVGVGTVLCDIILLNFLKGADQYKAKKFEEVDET

P2X3 receptor [2] = biological target: T1, P2X3 receptor; assay: ITC Kd; cryo-EM structure of the complex in peptidisc; also calcium influx IC50 […] in cells; assay type: binding
[3] = biological target: P2X3 receptor (Canis lupus), first five N-terminal and last 33 C-terminal residues deleted (Canis lupus sp.); assay: cryo-EM structure; camlipixant-bound P2X3 reconstituted into peptidisc; camlipixant at a molar ratio of 1:5, 30 min on ice; C3 symmetry

Molecule: Nc1ncnc2c1ncn2[C@@H]1O[C@H](COP(=O)(O)OP(=O)(O)OP(=O)(O)O)[C@@H](O)[C@H]1O [ATP]
Kd (P2X3 receptor [1]): 2000 nM

Molecule: CNC(=O)c1cc(F)c(-c2nc3cc(C)ccn3c2C[C@H]2CN(C(=O)OC)CCO2)c(F)c1 [camlipixant]
Kd (P2X3 receptor [2]): 100 nM

stoichiometry N [3]: 3
Molecule: P2X3 receptor (Canis lupus), first five N-terminal and last 33 C-terminal residues deleted
